Key:
[1] = biological target: Serine/threonine-protein kinase PAK 2 (Homo sapiens) (UniProt Q13177); experiment: Residual activity of PAK2 at 1 uM by microplate scintillation counting
[2] = biological target: T1, Ephrin type-A receptor 8 (Homo sapiens) (UniProt P29322); experiment: Residual activity of EPHA8 at 10 uM by microplate scintillation counting
T1 sequence (whole entry): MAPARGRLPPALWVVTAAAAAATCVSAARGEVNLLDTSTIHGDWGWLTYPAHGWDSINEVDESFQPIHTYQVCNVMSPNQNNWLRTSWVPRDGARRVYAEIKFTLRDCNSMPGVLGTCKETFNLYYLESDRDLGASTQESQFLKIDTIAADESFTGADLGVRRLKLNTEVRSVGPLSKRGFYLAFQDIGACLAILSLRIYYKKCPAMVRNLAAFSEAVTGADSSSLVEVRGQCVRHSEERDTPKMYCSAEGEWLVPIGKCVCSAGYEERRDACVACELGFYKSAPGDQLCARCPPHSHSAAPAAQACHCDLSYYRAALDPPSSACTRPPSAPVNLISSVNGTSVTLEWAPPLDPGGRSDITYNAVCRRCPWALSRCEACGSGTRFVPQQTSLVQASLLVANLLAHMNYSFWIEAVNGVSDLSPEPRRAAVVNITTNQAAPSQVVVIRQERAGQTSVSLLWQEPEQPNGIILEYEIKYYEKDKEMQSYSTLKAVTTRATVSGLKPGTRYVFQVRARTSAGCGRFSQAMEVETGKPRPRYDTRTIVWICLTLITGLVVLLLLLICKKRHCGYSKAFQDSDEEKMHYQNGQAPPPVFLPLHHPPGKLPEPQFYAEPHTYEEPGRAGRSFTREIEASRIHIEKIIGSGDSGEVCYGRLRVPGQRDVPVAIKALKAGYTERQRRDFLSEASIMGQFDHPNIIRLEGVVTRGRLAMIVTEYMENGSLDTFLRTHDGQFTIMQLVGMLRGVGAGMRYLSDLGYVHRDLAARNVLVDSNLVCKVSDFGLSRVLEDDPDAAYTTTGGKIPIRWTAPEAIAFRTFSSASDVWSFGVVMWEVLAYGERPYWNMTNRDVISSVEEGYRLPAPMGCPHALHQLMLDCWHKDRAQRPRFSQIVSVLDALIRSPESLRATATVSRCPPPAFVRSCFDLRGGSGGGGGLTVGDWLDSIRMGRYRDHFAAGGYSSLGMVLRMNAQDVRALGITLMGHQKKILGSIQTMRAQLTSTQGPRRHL

[3] = biological target: T2, Serine/threonine-protein kinase Nek1 (Homo sapiens) (UniProt Q96PY6); experiment: Residual activity of NEK1 at 10 uM by microplate scintillation counting
T2 sequence (whole entry): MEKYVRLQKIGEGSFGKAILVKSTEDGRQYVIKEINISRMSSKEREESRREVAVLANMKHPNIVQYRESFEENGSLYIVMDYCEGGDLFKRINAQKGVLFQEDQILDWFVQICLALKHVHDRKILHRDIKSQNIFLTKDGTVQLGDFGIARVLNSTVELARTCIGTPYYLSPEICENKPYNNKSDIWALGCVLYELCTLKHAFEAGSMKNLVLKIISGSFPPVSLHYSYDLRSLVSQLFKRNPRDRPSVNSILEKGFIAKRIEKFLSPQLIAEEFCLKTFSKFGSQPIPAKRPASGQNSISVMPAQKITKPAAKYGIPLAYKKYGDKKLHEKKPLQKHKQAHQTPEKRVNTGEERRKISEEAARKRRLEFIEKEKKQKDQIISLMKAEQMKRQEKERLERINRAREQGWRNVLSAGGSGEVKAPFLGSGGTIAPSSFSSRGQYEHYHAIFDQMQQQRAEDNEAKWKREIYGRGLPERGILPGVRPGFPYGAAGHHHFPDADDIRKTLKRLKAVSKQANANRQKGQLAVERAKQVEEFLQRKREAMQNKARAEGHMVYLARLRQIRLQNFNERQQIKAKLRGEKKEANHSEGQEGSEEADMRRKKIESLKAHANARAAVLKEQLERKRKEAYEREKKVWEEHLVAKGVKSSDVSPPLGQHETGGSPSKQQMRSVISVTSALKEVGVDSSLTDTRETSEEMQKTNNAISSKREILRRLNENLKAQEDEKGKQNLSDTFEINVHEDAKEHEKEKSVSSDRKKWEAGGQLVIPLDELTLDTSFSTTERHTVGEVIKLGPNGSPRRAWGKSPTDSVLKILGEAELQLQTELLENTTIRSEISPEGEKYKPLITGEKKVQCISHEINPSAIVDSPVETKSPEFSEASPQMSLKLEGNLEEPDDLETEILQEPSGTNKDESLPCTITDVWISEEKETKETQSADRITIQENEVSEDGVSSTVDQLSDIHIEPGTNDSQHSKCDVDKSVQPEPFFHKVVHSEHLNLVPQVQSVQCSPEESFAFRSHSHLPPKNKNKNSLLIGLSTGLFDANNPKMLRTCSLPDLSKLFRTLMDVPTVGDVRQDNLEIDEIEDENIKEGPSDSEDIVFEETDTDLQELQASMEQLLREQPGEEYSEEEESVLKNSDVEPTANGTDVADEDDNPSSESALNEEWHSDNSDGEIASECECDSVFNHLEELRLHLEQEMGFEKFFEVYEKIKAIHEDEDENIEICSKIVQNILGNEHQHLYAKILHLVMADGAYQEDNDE

[4] = biological target: T3, Activin receptor type-1B (Homo sapiens) (UniProt P36896); experiment: Residual activity of ACVR1B at 0.1 uM by microplate scintillation counting
T3 sequence (whole entry): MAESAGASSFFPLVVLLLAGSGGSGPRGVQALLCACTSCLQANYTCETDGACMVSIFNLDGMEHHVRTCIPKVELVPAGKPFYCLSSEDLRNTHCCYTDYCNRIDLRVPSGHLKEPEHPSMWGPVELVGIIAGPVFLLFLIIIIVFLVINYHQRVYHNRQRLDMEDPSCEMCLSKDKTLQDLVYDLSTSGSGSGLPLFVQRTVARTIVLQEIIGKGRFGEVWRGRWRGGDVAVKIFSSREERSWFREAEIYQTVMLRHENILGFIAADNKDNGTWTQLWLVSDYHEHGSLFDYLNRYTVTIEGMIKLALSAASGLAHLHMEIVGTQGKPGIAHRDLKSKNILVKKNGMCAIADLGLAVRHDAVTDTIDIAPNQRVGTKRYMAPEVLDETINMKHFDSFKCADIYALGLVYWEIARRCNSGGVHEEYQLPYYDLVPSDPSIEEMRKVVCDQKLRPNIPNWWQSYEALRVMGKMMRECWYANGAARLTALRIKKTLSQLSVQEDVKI

Serine/threonine-protein kinase PAK 2 (Homo sapiens), sequence (Q13177 whole entry): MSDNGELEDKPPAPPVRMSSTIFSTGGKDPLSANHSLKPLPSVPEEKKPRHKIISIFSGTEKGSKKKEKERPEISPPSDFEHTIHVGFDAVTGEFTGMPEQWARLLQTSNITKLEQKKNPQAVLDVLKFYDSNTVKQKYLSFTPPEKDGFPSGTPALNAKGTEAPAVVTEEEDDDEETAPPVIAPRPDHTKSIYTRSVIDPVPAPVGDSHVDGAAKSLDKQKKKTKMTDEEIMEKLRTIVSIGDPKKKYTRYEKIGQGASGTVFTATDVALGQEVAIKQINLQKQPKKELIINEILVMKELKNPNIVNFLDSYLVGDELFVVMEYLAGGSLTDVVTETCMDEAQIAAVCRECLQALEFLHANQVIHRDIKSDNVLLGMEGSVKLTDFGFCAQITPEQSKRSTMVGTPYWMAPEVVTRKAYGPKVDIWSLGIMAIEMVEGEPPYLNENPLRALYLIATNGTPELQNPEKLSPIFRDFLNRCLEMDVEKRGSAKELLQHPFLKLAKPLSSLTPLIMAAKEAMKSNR

residual activity [1] [%]	residual activity [2] [%]	residual activity [3] [%]	residual activity [4] [%]	SMILES
124	273	104	102	COc1cc2c(Oc3ccc(-c4nc5ccccc5s4)cc3)ncnc2cc1OCCCN1CCN(C)CC1
103	114	101	97	COc1cc2c(Oc3ccc(-c4nc5ccccc5s4)cc3F)ncnc2cc1OCCCN1CCN(C)CC1
102	185	93	100	COc1cc2c(Oc3ccc(-c4nc5ccccc5s4)cc3)ncnc2cc1OCCCN1CCCC1
